Assay results: PMC5107132 (European journal of pharmacology, 2016)
Marks after values point to notes of the source that are not given here.

What was measured:
Wistar rats [1] = assay: Intravenous pentylenetetrazole infusion test; assay type: in vivo, rat
α2β3γ2 GABAA receptors = α2β3γ2 GABAA receptors (Rattus norvegicus, UniProt P18508+P23576); assay: Two-electrode voltage clamp in Xenopus oocytes, α2β3γ2; assay type: cell-based
Wistar rats [2] = assay: Amphetamine induced locomotor activity; assay type: in vivo, rat; conditions: 1, 2.5 and 10 mg/kg i.p.
[3] = tested on: 50 other receptor and enzyme assays; assay: NIMH PDSP screen, 50 other receptor and enzyme assays
[4] = In vitro hydrolytic stability study in rat plasma; assay type: in vitro ADME; conditions: for Total plasma concentration (in vitro metabolic stability): rat plasma 37 °C
α3β3γ2S GABAA receptors = α3β3γ2S GABAA receptors (Rattus norvegicus, UniProt P18508+P20236); assay: 3H-flunitrazepam competition binding, α3β3γ2S
Wistar rats [5] = assay: Elevated plus maze; assay type: in vivo, rat; conditions: 1 mg/kg to 10 mg/kg i.p., 5 min
α1β3γ2 GABAA receptors = α1β3γ2 GABAA receptors (Rattus norvegicus, UniProt P18508+P62813); assay: Two-electrode voltage clamp in Xenopus oocytes, α1β3γ2; assay type: cell-based; conditions: whole range of in vivo free brain concentrations obtained
α2β3γ2S GABAA receptors = α2β3γ2S GABAA receptors (Rattus norvegicus, UniProt P18508+P23576); assay: 3H-flunitrazepam competition binding, α2β3γ2S
α5β3γ2S GABAA receptors = α5β3γ2S GABAA receptors (Rattus norvegicus, UniProt P18508+P19969); assay: 3H-flunitrazepam competition binding, α5β3γ2S
Wistar rats [6] = assay: Rotarod test; assay type: in vivo, rat
non-α5GABAARs = assay: Two-electrode voltage clamp in Xenopus oocytes, non-α5 receptors; assay type: cell-based, rat; conditions: 100 nM effective concentration
Wistar rats [7] = assay: Grip strength; assay type: in vivo, rat; conditions: for Grip strength, peak force of experimenter's pull necessary to overcome the animal's grip: 20 min before testing
[8] = Plasma protein and brain tissue binding; assay type: in vitro ADME, rat; conditions: rat
α1β3γ2S GABAA receptors = α1β3γ2S GABAA receptors (Rattus norvegicus, UniProt P18508+P62813); assay: 3H-flunitrazepam competition binding, α1β3γ2S
[9] = Pharmacokinetic study, plasma and brain concentrations after i.p. injection
α5β3γ2 GABAA receptors = α5β3γ2 GABAA receptors (Rattus norvegicus, UniProt P18508+P19969); assay: Two-electrode voltage clamp in Xenopus oocytes, α5β3γ2; assay type: cell-based; conditions: concentrations approaching 100 nM; GABA EC3-5
α3β3γ2 GABAA receptors = α3β3γ2 GABAA receptors (Rattus norvegicus, UniProt P18508+P20236); assay: Two-electrode voltage clamp in Xenopus oocytes, α3β3γ2; assay type: cell-based
[10] = only at concentrations of about 100 nM and above
[11] = rat i.p., MP-III-022 2.5 mg/kg vs SH-053-2′F-R-CH3 10 mg/kg

C#Cc1ccc2c(c1)C(c1ccccc1F)=N[C@H](C)c1c(C(=O)NC)ncn1-2 [MP-III-022, (R)-8-Ethynyl-6-(2-fluorophenyl)-N,4-dimethyl-4H-benzo[f]imidazo[1,5-a][1,4]diazepine-3-carboxamide]
PTZ test, threshold dose of PTZ required to elicit seizures (Wistar rats [1]; 1 mg/kg i.p.): 60.99 ± 6.11 mg/kg PTZ
PTZ test, threshold dose of PTZ required to elicit seizures (Wistar rats [1]; 10 mg/kg i.p.): 50.99 ± 3.72 mg/kg PTZ
PTZ test, effect of treatment (one-way ANOVA) (Wistar rats [1]; 1 and 10 mg/kg i.p.): did not show a statistically significant effect
Estimated potentiation at α2GABAARs (α2β3γ2 GABAA receptors; after the 15 mg/kg dose): 225%
Estimated potentiation at α2GABAARs (α2β3γ2 GABAA receptors; after the 20 mg/kg dose): 280%
Estimated potentiation at α2GABAARs (α2β3γ2 GABAA receptors; after the dose of 10 mg/kg): 138%
Modulatory activity at α2-containing receptors (α2β3γ2 GABAA receptors; [10]): weakly modulatory
Locomotor activity during 20 min before amphetamine treatment (Wistar rats [2]): did not show any effect of treatment
Influence on amphetamine's effects (hyperlocomotion, 0.5 mg/kg amphetamine) (Wistar rats [2]; 60 min): lack of influence
Activity in 50 other receptor and enzyme assays [3]: negligible activity
Total plasma concentration (in vitro metabolic stability) ([4]; 0 min): 0.5556 µM
Total plasma concentration (in vitro metabolic stability) ([4]; 30 min): 0.5402 ± 0.0146 µM
Total plasma concentration (in vitro metabolic stability) ([4]; 60 min): 0.5403 ± 0.0193 µM
Total plasma concentration (in vitro metabolic stability) ([4]; 120 min): 0.5472 ± 0.0007 µM
Total plasma concentration (in vitro metabolic stability) ([4]; 240 min): 0.5374 ± 0.0063 µM
In vitro metabolic stability during incubation in rat plasma ([4]; rat, plasma): excellent in vitro metabolic stability
remaining at 0 h, 0.2 μg/ml ([4]; rat, plasma): 100%
remaining at 0.5 h, 0.2 μg/ml ([4]; rat, plasma): 97.2%
remaining at 1 h, 0.2 μg/ml ([4]; rat, plasma): 97.2%
remaining at 2 h, 0.2 μg/ml ([4]; rat, plasma): 98.5%
remaining at 4 h, 0.2 μg/ml ([4]; rat, plasma): 96.7%
Ki (α3β3γ2S GABAA receptors): 660 ± 170 nM
Elevated plus maze, closed and total arm entries (Wistar rats [5]): did not affect
Elevated plus maze, percent of open arm entries (Wistar rats [5]): did not affect
Elevated plus maze, percent of open arm time (Wistar rats [5]): did not affect
Elevated plus maze, total distance traveled (Wistar rats [5]): did not affect
Modulatory actions at α1-containing GABAA receptors (α1β3γ2 GABAA receptors): lacked modulatory actions
Ki (α2β3γ2S GABAA receptors): 360 ± 56 nM
Estimated free concentration as % of Ki value for α2GABAARs (α2β3γ2S GABAA receptors; after the dose of 10 mg/kg): 19%
Ki (α5β3γ2S GABAA receptors): 55 ± 17 nM
Selectivity in binding to α5GABAARs compared to α1-containing GABAA receptors (α5β3γ2S GABAA receptors; ratio of Ki values): 15 fold
Selectivity in binding to α5GABAARs compared to α2-containing GABAA receptors (α5β3γ2S GABAA receptors; ratio of Ki values): 6 fold
Selectivity in binding to α5GABAARs compared to α3-containing GABAA receptors (α5β3γ2S GABAA receptors; ratio of Ki values): 12 fold
Rotarod, time remaining on the rod revolving at 15 rpm (Wistar rats [6]; 10 mg/kg i.p.): 180 s
Rotarod, time remaining on the rod revolving at 15 rpm (Wistar rats [6]; 15 mg/kg MP-III-022 in combination with 20 mg/kg XLi-093, i.p.): 74.61 ± 34.03 s
Rotarod, time remaining on the rod revolving at 15 rpm (Wistar rats [6]; 15 mg/kg i.p.): 69.09 ± 25.58 s
Rotarod, time remaining on the rod revolving at 15 rpm (Wistar rats [6]; 20 mg/kg i.p.): 6.67 ± 4.81 s
Effects (potentiation) on non-α5GABAARs (non-α5GABAARs): ≤ 150%
Grip strength, peak force of experimenter's pull necessary to overcome the animal's grip (Wistar rats [7]; 1 mg/kg i.p.): 2.57 ± 0.08 kg/kg
Grip strength, peak force of experimenter's pull necessary to overcome the animal's grip (Wistar rats [7]; 2.5 mg/kg i.p.): 2.41 ± 0.28 kg/kg
Grip strength, peak force of experimenter's pull necessary to overcome the animal's grip (Wistar rats [7]; 10 mg/kg i.p.): 1.94 ± 0.22^b,d kg/kg
Grip strength, peak force of experimenter's pull necessary to overcome the animal's grip (Wistar rats [7]; 15 mg/kg i.p.): 1.86 ± 0.16^a kg/kg
Grip strength, peak force of experimenter's pull necessary to overcome the animal's grip (Wistar rats [7]; 20 mg/kg i.p.): 1.78 ± 0.16^c,d kg/kg
Dose at which the first muscle relaxant effect was observed (Wistar rats [7]; i.p., grip strength): 10 mg/kg
fraction unbound ([8]; brain tissue): 0.0661
fraction unbound ([8]; plasma): 0.135
Ki (α1β3γ2S GABAA receptors): 850 ± 110 nM
Brain AUC (0 to 180 min) relative to SH-053-2′F-R-CH3 [9, 11]: 1.75 fold
Plasma AUC (0 to 180 min) relative to SH-053-2′F-R-CH3 [9, 11]: 2 fold
Brain free (estimated) concentration ([9]; rat, 1 mg/kg i.p., 20 min): 6.38 ± 0.80 nmol/kg
Brain free (estimated) concentration ([9]; rat, 2.5 mg/kg i.p., 20 min): 10.34 ± 3.33 nmol/kg
Brain total concentration ([9]; rat, 2.5 mg/kg i.p., 20 min): 156.46 ± 50.33 nmol/kg
Brain free (estimated) concentration ([9]; rat, 10 mg/kg i.p., 20 min): 68.12 ± 18.38 nmol/kg
Brain total concentration ([9]; rat, 10 mg/kg i.p., 20 min): 1030.52 ± 278.03 nmol/kg
Brain free (estimated) concentration ([9]; rat, 15 mg/kg i.p., 20 min): 317.57 ± 186.52 nmol/kg
Brain total concentration ([9]; rat, 15 mg/kg i.p., 20 min): 4804.44 ± 2821.77 nmol/kg
Brain free (estimated) concentration ([9]; rat, 20 mg/kg i.p., 20 min): 559.57 ± 58.58 nmol/kg
Brain total concentration ([9]; rat, 20 mg/kg i.p., 20 min): 8465.45 ± 886.18 nmol/kg
concentration at 20 min ([9]; rat, plasma, ip, 1 mg/kg, Plasma total concentration, 1 mg/kg i.p., 20 min): 62.4 ± 4.97 nM
Potentiation at α5β3γ2 (α5β3γ2 GABAA receptors): above 300%
Estimated potentiation at α3GABAARs (α3β3γ2 GABAA receptors; after the 15 mg/kg dose): 175%
Estimated potentiation at α3GABAARs (α3β3γ2 GABAA receptors; after the 20 mg/kg dose): 200%
Modulatory activity at α3-containing receptors (α3β3γ2 GABAA receptors; [10]): weakly modulatory
